{"source": "patent US4060530A", "about": "“Clavulanic acid amides” (Beecham Group Limited, priority 1975, dated 1977)", "key": {"Serratia marcescens [1]": {"system": "Serratia marcescens", "test": "MIC, microtitre method (Example 30)", "settings": "read-out: Minimum Inhibitory Concentration", "experimental": "(§1) The cultures were incubated overnight and the points of bacterial growth recorded next morning by observing the turbidity of the culture."}, "[2]": {"system": "Staphylococcus aureus (Russell)", "test": "MIC / synergism, microtitre method (Example 42)", "assay_type": "cell-based", "settings": "Staphylococcus aureus; agent alone (Tables 5, 6); inoculum final dilution 0.5 ×10^-2, 37° C overnight; read-out: Minimum Inhibitory Concentration"}, "Escherichia coli B 11": {"system": "Escherichia coli B 11", "test": "MIC / synergism, microtitre method (Example 42)", "assay_type": "cell-based", "settings": "B11, agent alone, inoculum final dilution 0.5 ×10^-2, 37° C overnight, read-out: Minimum Inhibitory Concentration"}, "Escherchia coli 10418": {"system": "Escherchia coli 10418", "test": "MIC, method of Example 30 with 1/100 dilution of overnight broth (Example 46)", "experimental": "as §1"}, "[3]": {"system": "Escherichia coli NCTC 10481", "test": "MIC / synergism, microtitre method (Example 42)", "assay_type": "cell-based", "settings": "NCTC10481, agent alone, inoculum final dilution 0.5 ×10^-2, 37° C overnight, read-out: Minimum Inhibitory Concentration"}, "Proteus vulgaris W090": {"system": "Proteus vulgaris W090", "test": "MIC, microtitre method (Example 30)", "settings": "W090, read-out: Minimum Inhibitory Concentration", "experimental": "as §1"}, "Proteus mirabilis C977": {"system": "Proteus mirabilis C977", "test": "MIC, microtitre method (Example 30)", "settings": "C977, read-out: Minimum Inhibitory Concentration", "experimental": "as §1"}, "[4]": {"system": "Staphylococcus aureus (Russell)", "test": "MIC, microtitre method (Example 30)", "settings": "read-out: Minimum Inhibitory Concentration", "experimental": "as §1"}, "Bacillus subtilis": {"system": "Bacillus subtilis", "test": "MIC, microtitre method (Example 30)", "settings": "read-out: Minimum Inhibitory Concentration", "experimental": "as §1"}, "Providentia stuartii": {"system": "Providentia stuartii", "test": "MIC, microtitre method (Example 30)", "settings": "read-out: Minimum Inhibitory Concentration", "experimental": "as §1"}, "Staph. aureus Oxford": {"system": "Staph. aureus Oxford", "test": "MIC, method of Example 30 with 1/100 dilution of overnight broth (Example 46)", "settings": "Staphylococcus aureus", "experimental": "as §1"}, "Acinetobacter anitratus": {"system": "Acinetobacter anitratus", "test": "MIC, microtitre method (Example 30)", "settings": "Acinetobacter calcoaceticus, read-out: Minimum Inhibitory Concentration", "experimental": "as §1"}, "Enterobacter cloacae [5]": {"system": "Enterobacter cloacae", "test": "MIC / synergism, microtitre method (Example 42)", "assay_type": "cell-based", "settings": "agent alone, inoculum final dilution 0.5 ×10^-2, 37° C overnight, read-out: Minimum Inhibitory Concentration"}, "Klebsiella oxytocum": {"system": "Klebsiella oxytocum", "test": "MIC, microtitre method (Example 30)", "settings": "read-out: Minimum Inhibitory Concentration", "experimental": "as §1"}, "Staphylococcus aureus": {"system": "Staphylococcus aureus", "test": "MIC / synergism, microtitre method (Example 42)", "assay_type": "cell-based", "settings": "Staphylococcus aureus; agent alone (Tables 5, 6); inoculum final dilution 0.5 ×10^-2, 37° C overnight; read-out: Minimum Inhibitory Concentration"}, "[6]": {"system": "Staphylococcus aureus (Oxford H)", "test": "MIC, microtitre method (Example 30)", "settings": "read-out: Minimum Inhibitory Concentration", "experimental": "as §1"}, "[7]": {"system": "Enterobacter aerogenes T 624", "test": "MIC, microtitre method (Example 30)", "settings": "Klebsiella aerogenes, T624, read-out: Minimum Inhibitory Concentration", "experimental": "as §1"}, "[8]": {"system": "Streptococcus pyogenes CN 10", "test": "MIC, microtitre method (Example 30)", "settings": "CN10, read-out: Minimum Inhibitory Concentration", "experimental": "as §1"}, "Shigella sonnei": {"system": "Shigella sonnei", "test": "MIC, microtitre method (Example 30)", "settings": "read-out: Minimum Inhibitory Concentration", "experimental": "as §1"}, "Proteus mirabilis 899": {"system": "Proteus mirabilis 899", "test": "microbe, parasite or virus in culture", "assay_type": "cell-based", "settings": "Proteus mirabilis, 899, read-out: Minimum Inhibitory Concentration"}, "Klebsiella aerogenes": {"system": "Klebsiella aerogenes", "test": "MIC, microtitre method (Example 30)", "settings": "read-out: Minimum Inhibitory Concentration", "experimental": "as §1"}, "Klebsiella sp 62": {"system": "Klebsiella sp 62", "test": "MIC / synergism, microtitre method (Example 42)", "assay_type": "cell-based", "settings": "agent alone, inoculum final dilution 0.5 ×10^-2, 37° C overnight, read-out: Minimum Inhibitory Concentration"}, "[9]": {"system": "Escherichia coli NCTC 10418", "test": "MIC, microtitre method (Example 30)", "settings": "NCTC10418, read-out: Minimum Inhibitory Concentration", "experimental": "as §1"}, "Streptococcus faecalis": {"system": "Streptococcus faecalis", "test": "MIC, microtitre method (Example 30)", "settings": "Enterococcus faecalis, read-out: Minimum Inhibitory Concentration", "experimental": "as §1"}, "Pseudomonas aeruginosa A": {"system": "Pseudomonas aeruginosa A", "test": "MIC, microtitre method (Example 30)", "settings": "read-out: Minimum Inhibitory Concentration", "experimental": "as §1"}, "Enterobacter cloacae [10]": {"system": "Enterobacter cloacae", "test": "MIC, microtitre method (Example 30)", "settings": "read-out: Minimum Inhibitory Concentration", "experimental": "as §1"}, "Salmonella typhimurium": {"system": "Salmonella typhimurium", "test": "MIC, microtitre method (Example 30)", "settings": "Salmonella enterica, read-out: Minimum Inhibitory Concentration", "experimental": "as §1"}, "Staph. aureus Russell": {"system": "Staph. aureus Russell", "test": "MIC, method of Example 30 with 1/100 dilution of overnight broth (Example 46)", "settings": "Staphylococcus aureus", "experimental": "as §1"}, "Bacillus subtilis A": {"system": "Bacillus subtilis A", "test": "MIC, method of Example 30 with 1/100 dilution of overnight broth (Example 46)", "settings": "Bacillus subtilis", "experimental": "as §1"}, "Serratia marcescens [11]": {"system": "Serratia marcescens", "test": "MIC / synergism, microtitre method (Example 42)", "assay_type": "cell-based", "settings": "agent alone, inoculum final dilution 0.5 ×10^-2, 37° C overnight, read-out: Minimum Inhibitory Concentration"}, "[12]": {"test": "Blood and tissue levels of clavulanic acid in female mice", "assay_type": "in vivo"}}, "note": "Structures can show the parent of a compound that is named as a salt."}
{"molecule": "O=C(O)[C@H]1/C(=C/CO)O[C@@H]2CC(=O)N21", "note": "[clavulanic acid sodium salt, 3-(β-hydroxyethylidine)-7-oxo-4-oxa-1-azabicyclo [3,2,0]heptane-2-carboxylic acid sodium salt]", "values": [{"measurement": "MIC", "setting": "Serratia marcescens [1]", "result": 125, "unit": "µg/mL"}, {"measurement": "MIC", "setting": "[2]", "result": 15, "unit": "µg/mL"}, {"measurement": "MIC", "setting": "Escherichia coli B 11", "result": 62, "unit": "µg/mL"}, {"measurement": "MIC", "setting": "Escherchia coli 10418", "result": 125, "unit": "µg/mL"}, {"measurement": "MIC", "setting": "[3]", "result": 31, "unit": "µg/mL"}, {"measurement": "MIC", "setting": "Proteus vulgaris W090", "result": 31, "unit": "µg/mL"}, {"measurement": "MIC", "setting": "Proteus mirabilis C977", "result": 62, "unit": "µg/mL"}, {"measurement": "MIC", "setting": "[4]", "result": 7.5, "unit": "µg/mL"}, {"measurement": "MIC", "setting": "Bacillus subtilis", "result": 62, "unit": "µg/mL"}, {"measurement": "MIC", "setting": "Providentia stuartii", "result": 125, "unit": "µg/mL"}, {"measurement": "MIC", "setting": "Staph. aureus Oxford", "result": 15, "unit": "µg/mL"}, {"measurement": "MIC", "setting": "Acinetobacter anitratus", "result": 125, "unit": "µg/mL"}, {"measurement": "MIC", "setting": "Enterobacter cloacae [5]", "result": 62, "unit": "µg/mL"}, {"measurement": "MIC", "setting": "Klebsiella oxytocum", "result": 62, "unit": "µg/mL"}, {"measurement": "MIC", "setting": "Staphylococcus aureus", "result": 62, "unit": "µg/mL"}, {"measurement": "MIC", "setting": "[6]", "result": 7.5, "unit": "µg/mL"}, {"measurement": "MIC", "setting": "[7]", "result": 31, "unit": "µg/mL"}, {"measurement": "MIC", "setting": "[8]", "result": 125, "unit": "µg/mL"}, {"measurement": "MIC", "setting": "Shigella sonnei", "result": 62, "unit": "µg/mL"}, {"measurement": "MIC", "setting": "Proteus mirabilis 899", "result": "> 500", "unit": "µg/mL"}, {"measurement": "MIC", "setting": "Klebsiella aerogenes", "result": "31 to 62", "unit": "µg/mL"}, {"measurement": "MIC", "setting": "Klebsiella sp 62", "result": 31, "unit": "µg/mL"}, {"measurement": "MIC", "setting": "[9]", "result": 31, "unit": "µg/mL"}, {"measurement": "MIC", "setting": "Streptococcus faecalis", "result": "> 500", "unit": "µg/mL"}, {"measurement": "MIC", "setting": "Pseudomonas aeruginosa A", "result": 500, "unit": "µg/mL"}, {"measurement": "MIC", "setting": "Enterobacter cloacae [10]", "result": 62, "unit": "µg/mL"}, {"measurement": "MIC", "setting": "Salmonella typhimurium", "result": 31, "unit": "µg/mL"}, {"measurement": "MIC", "setting": "Staph. aureus Russell", "result": 15, "unit": "µg/mL"}, {"measurement": "MIC", "setting": "Bacillus subtilis A", "result": 62, "unit": "µg/mL"}, {"measurement": "MIC", "setting": "Serratia marcescens [11]", "result": 125, "unit": "µg/mL"}, {"measurement": "levels of clavulanic acid after oral administration", "setting": "[12]; oral administration of 100 mg/kg", "result": "useful levels of clavulanic acid can be obtained"}, {"measurement": "blood and tissue levels of clavulanic acid", "setting": "[12]; subcutaneous administration of 100 mg/kg", "result": "> 5", "unit": "µg/mL"}]}
